Source: publication PMC7004148, “Flexible Fragment Growing Boosts Potency of Quorum‐Sensing Inhibitors against Pseudomonas aeruginosa Virulence” (Chemmedchem, 2019)

Assays:
[1] = molecular target: T1, PqsR (Pseudomonas aeruginosa, UniProt Q9I4X0); experiment: biochemical; format: binding; design: H6SUMOPqsRc87 and T265A mutant H6SUMOPqsRc87 for ITC studies was expressed; made in house; host or cells: E. coli BL21 (λDE3); conditions: for -TΔS / ΔG / EE / LE: Table S1; for EE: enthalpic efficiency; for LE: ligand efficiency
Description: 3.2 Expression and Purification of H6SUMOPqsRc87
H6SUMOPqsRc87 and T265A mutant H6SUMOPqsRc87 for ITC studies was expressed and purified as previously reported.[8,9] Briefly, E. coli BL21 (λDE3) transfected with the pSUMO3_ck4_pqsRC87 or pSUMO3_ck4_T265ApqsRC87 plasmid[8] were grown in LB medium containing 50 µg mL-1 kanamycin at 37 °C to an OD600 of approximately 0.8 and expression was induced with 0.2 mM IPTG for 16 h at 16 °C. The protein was purified using nickel affinity chromatography in a one step gradient.
ITC titrations were performed as described before.[8,9] Briefly, ITC experiments were carried out using an ITC200 instrument (Microcal Inc., GE Healthcare). The titrations were performed on 50-150 µM H6SUMO-PqsRC87 in the 200 µL sample cell using 19 injections of 2 µL ligand solution (0.5-1.5 mM) every 180 s. The data were collected and the area under each peak was integrated. To correct for heats of dilution and mixing the final base line consisting of small peaks of the same size at the end of the titration were substracted.
Target sequence in this assay (Q9I4X0 87-332): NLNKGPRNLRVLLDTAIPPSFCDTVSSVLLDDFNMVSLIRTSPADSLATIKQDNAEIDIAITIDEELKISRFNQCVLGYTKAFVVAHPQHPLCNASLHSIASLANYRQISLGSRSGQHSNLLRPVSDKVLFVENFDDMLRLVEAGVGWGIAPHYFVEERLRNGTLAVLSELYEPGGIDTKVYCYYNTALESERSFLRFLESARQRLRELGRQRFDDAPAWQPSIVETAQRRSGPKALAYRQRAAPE

[2] = molecular target: T1, PqsR; experiment: PqsR β-galactosidase reporter gene assay in E. coli; format: cell-based; design: expressed in transfected cells; host or cells: E. coli DH5α carrying plasmid pEAL08-2
Description: 5. E. coli reporter-gene assay & dose-response curves
PqsR Reporter gene assay in E. coli. The inverse agonistic/antagonistic activity of potential PqsR ligands was evaluated in a β-galactosidase reporter gene assay in E. coli as previously described.[26] In short, test compounds were co-incubated with E. coli DH5α cells containing the plasmid pEAL08-2,[27] which expresses PqsR and the β-galactosidase LacZ under the control of the pqsA promoter. The inverse agonistic/antagonistic activity of compounds was measured in the presence of 50 nM PQS. After incubation, galactosidase activity was quantified photometrically and expressed as ratio of controls. The given IC50 values represent the mean of at least two independent experiments using at least eight different concentrations of test compound with n = 4. Non-linear regression analysis was done using the log (inhibitor) vs response model included in the GrapPad Prism 5.0 software package.
Target sequence in this assay (Q9I4X0 whole entry): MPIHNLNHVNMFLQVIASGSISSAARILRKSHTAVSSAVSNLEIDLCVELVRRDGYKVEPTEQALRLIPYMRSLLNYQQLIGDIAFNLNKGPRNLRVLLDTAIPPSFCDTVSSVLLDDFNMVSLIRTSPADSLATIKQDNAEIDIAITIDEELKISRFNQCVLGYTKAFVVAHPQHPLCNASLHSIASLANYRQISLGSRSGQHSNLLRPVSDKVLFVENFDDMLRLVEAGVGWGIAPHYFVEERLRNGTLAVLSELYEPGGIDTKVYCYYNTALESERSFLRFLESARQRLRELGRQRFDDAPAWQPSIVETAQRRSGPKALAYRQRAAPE

[3] = system: pyocyanin in P. aeruginosa PA14; experiment: Pyocyanin assay in P. aeruginosa PA14 cultures; format: cell-based, Pseudomonas aeruginosa PA14; conditions: Pseudomonas aeruginosa; for IC50: PA14, read-out: Pyocyanin IC50, PA14 cultures, photometric quantification, mean of at least two independent experiments, SD<25 %; for inhibition at 100 µM: PA14, read-out: Pyocyanin inhibition
Description: (§1) 6. Effects in P. aeruginosa
(§2) Pyocyanin Assay. The inhibition of virulence factor pyocyanin was measured as described previously[26] following a procedure established by Essar et al.[28] Briefly, Pseudomonas aeruginosa PA14 cultures were grown in the presence of inhibitors or DMSO as control for 16 h. Pyocyanin was determined photometrically after extraction of the cultures with chloroform and re-extraction with 0.2 M HCl. Protonated red colored pyocyanin was determined by measuring OD520 and normalizing to OD600. None of the compound impaired bacterial viability as observed by the OD600 parameter. Inhibition values were expressed in relation to the DMSO control. Each value is the mean of at least two independent experiments with n=3.
(§3) The given IC50 values represent the mean of at least two experiments using at least five different concentrations. Curve fitting was performed using the log (inhibitor) vs response model with constrained bottom = 0 and top =100 (GraphPad Prism 5.0).
(§4) Figure S4: Inhibition of virulence factor pyocyanin was evaluated in the clinical isolate PA14.
(§5) Representative dose-response curves a) compound 11 b) compound 20. Black dotes (•) represent the reduction of pyocyanin in presents of a given compound concentration relative to DMSO control (= 0 %). The continuous black line is the none -linear regression analysis to […]
(1 picture or pasted object on this page, not shown here)

[4] = system: HHQ levels in PA14pqsH strain; experiment: HHQ quantification in PA14pqsH cultures (UHPLC-MS/MS); format: cell-based; conditions: Pseudomonas aeruginosa, read-out: HHQ inhibition
Description: (§6) determine IC50 values using a log (inhibitor) vs. response model with constrains (bottom = 0; top =100) (Graph Pad Prism 5.04).
(§7) HHQ and HQNO Quantification. Extracellular HHQ and HQNO were measured as previously reported[29] following a modified procedure of Lépine et al.:[30] Briefly, P. aeruginosa PA14pqsH cultures were grown in the presence of DMSO as a control or DMSO solutions of inhibitors for 17 h. HHQ and HQNO were quantified from ethyl acetate extracts using 5,6,7,8-tetradeutero-2-heptyl-4(1H)-quinolone (HHQ-d4) as internal standard (IS).
(§8) UHPLC-MS/MS analysis was performed as described in detail by Storz et al.[31] The following ions were monitored (mother ion [m/z], product ion [m/z], scan time [s], scan width [m/z], […]
(§9) quantification was performed using Xcalibur software with the use of a calibration curve relative to the area of the IS. Given data represent the mean of at least two independent experiments with n=3 and were expressed as percentage inhibition relative to DMSO control.

[5] = system: Pseudomonas aeruginosa PA14; format: cell-based; conditions: PA14 cultures grown 16 h in the presence of inhibitors
Description: as §1, §2, §3, §4, §5

[6] = system: HQNO levels in PA14pqsH strain; experiment: HQNO quantification in PA14pqsH cultures (UHPLC-MS/MS); format: cell-based; conditions: Pseudomonas aeruginosa, read-out: HQNO inhibition
Description: as §6, §7, §8, §9

[7] = molecular target: PqsR ligand binding domain; design: method as in PMID 23713667; conditions: native agonist PQS towards the ligand binding domain; cited from earlier work
[8] = molecular target: T1, PqsR; experiment: PQS-mediated effect in P. aeruginosa; format: cell-based; design: expressed in transfected cells; host or cells: E. coli DH5α carrying plasmid pEAL08-2
Target sequence in this assay (Q9I4X0 whole entry): as above

[9] = system: PqsR; design: method as in PMID 24338917; conditions: PQS-mediated effect in E. coli-based assay; read-out: EC 50(E.coli); cited from earlier work

## Nc1cc(NCc2ccccc2)cc(C(F)(F)F)n1 [Compound 12]
[1]
  Kd: 1400 ± 500 nM
  -TΔS: 3.2 ± 0.5 kcal/mol
  ΔG: -8.1 ± 0.3 kcal/mol
  EE: 0.57 kcal/mol
  LE: 0.43 kcal/mol

## Nc1cc(NCc2ccc(F)cc2F)cc(C(F)(F)F)n1 [Compound 13]
[1]
  Kd: 1300 ± 300 nM
  -TΔS: 3.5 ± 0.8 kcal/mol
  ΔG: -8.0 ± 0.1 kcal/mol
  EE: 0.55 kcal/mol
  LE: 0.40 kcal/mol

## Nc1cc(NC(=O)c2ccc(F)cc2)cc(C(F)(F)F)n1 [Compound 16]
[2]; @ 100 μM, in the presence of 50 nM PQS
  Inverse agonistic/antagonistic activity at a given concentration: 35±5 % @ 100 μM

## Nc1cc(N2CCC(c3ccc(F)cc3)C2)cc(C(F)(F)F)n1 (stereo not shown) [Compound 18]
[2]; in the presence of 50 nM PQS, n.i.=no inhibition (activity≤15 %)
  IC50 (inverse agonistic/antagonistic activity): n.i.

## Nc1cc(NCCc2ccc(F)cc2)cc(C(F)(F)F)n1 [Compound 19]
[1]
  Kd: 4700 ± 2300 nM
  -TΔS: 6.1 ± 0.7 kcal/mol
  ΔG: -7.4 ± 0.3 kcal/mol
  EE: 0.64 kcal/mol
  LE: 0.35 kcal/mol

## Nc1cc(NCCCc2ccc(F)cc2)cc(C(F)(F)F)n1 [Compound 20]
[3]
  IC50: 5900 nM
[4]
  inhibition at 100 µM: 56 ± 4%
[5]
  Bacterial viability (OD600): without affecting bacterial viability
[1]
  EE: 0.50 kcal/mol
[2]; E. coli reporter gene assay, 20 compared with 11
  boost in potency (IC50) versus 11: 20 fold
[6]
  inhibition at 100 µM: 48 ± 1%

## Nc1cc(NCCOc2ccc(F)cc2)cc(C(F)(F)F)n1 [Compound 21]
[3]
  inhibition at 100 µM: 58%
[2]; E. coli reporter gene assay, compared with 20
  drop in antagonistic activity versus 20: 20 fold

## Nc1cc(NCC(=O)Nc2ccc(F)cc2)cc(C(F)(F)F)n1 [Compound 22]
[3]
  inhibition at 100 µM: 37%

## O=C(CSc1nc2ccc([N+](=O)[O-])cc2[nH]1)Nc1ccc(Oc2ccccc2)cc1 [Compound R1, reference compound]
[3]
  IC50: 120 nM

## CCCCCCCc1[nH]c2ccc([N+](=O)[O-])cc2c(=O)c1C(N)=O [Compound R2, reference compound]
[3]
  IC50: 2000 nM

## CCCCCCCc1[nH]c2ccccc2c(=O)c1O [PQS, 2‐heptyl‐3‐hydroxy‐4(1H)‐quinolone]
[7]
  Kd: 1200 ± 300 nM
[8]
  EC50: 24 nM
[9]
  EC50: 6.3 nM
